Measurements from PMC12316058 (Nature chemical biology, 2024).

Key:
Ll Nox = target: T1, Ll Nox (Lactococcus cremoris, UniProt A2RIB7); assay: absorbance at […] nm, initial rates; format: biochemical; conditions: 50 mM Tris-Cl pH 7.0, 37 °C; O2 as acceptor
T1 sequence (A2RIB7 1-446): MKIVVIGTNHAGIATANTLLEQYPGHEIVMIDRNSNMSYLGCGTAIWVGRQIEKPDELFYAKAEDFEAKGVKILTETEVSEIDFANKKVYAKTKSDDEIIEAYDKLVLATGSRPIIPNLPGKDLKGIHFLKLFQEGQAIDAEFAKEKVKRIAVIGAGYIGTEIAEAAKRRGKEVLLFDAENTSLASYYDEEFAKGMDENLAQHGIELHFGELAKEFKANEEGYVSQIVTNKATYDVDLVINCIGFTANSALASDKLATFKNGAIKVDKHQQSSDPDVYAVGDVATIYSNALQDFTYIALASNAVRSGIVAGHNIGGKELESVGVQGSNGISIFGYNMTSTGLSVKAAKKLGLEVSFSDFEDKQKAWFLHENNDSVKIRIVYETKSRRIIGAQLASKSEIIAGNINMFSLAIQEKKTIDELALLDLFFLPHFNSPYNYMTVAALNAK

Cs (R)-Bdh = target: T2, Cs (R)-Bdh (Clostridium saccharoperbutylacetonicum, UniProt M1MWX5); assay: specific activity, absorbance at […] nm; format: biochemical; conditions: 10 mM m-BDO, 4 mM NADP+, 50 mM glycine-NaOH pH 10.0
T2 sequence (M1MWX5 1-361): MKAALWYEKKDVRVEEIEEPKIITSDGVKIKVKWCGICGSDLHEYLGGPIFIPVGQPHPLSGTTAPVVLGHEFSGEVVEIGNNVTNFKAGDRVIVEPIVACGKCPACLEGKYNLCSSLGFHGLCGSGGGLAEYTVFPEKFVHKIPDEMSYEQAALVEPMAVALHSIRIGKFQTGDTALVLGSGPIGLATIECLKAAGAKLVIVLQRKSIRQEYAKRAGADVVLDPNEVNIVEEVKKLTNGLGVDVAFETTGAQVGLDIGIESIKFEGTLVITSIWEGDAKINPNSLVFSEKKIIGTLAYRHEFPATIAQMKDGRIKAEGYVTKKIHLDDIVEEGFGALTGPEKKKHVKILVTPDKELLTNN

SMILES | kcat/Km app (Ll Nox) | specific activity (Cs (R)-Bdh)
NC(=O)C1=CN([C@@H]2O[C@H](COP(=O)(O)O)[C@@H](O)[C@H]2O)C=CC1 [NMNH] | Ll Nox WT (gray) and Nox Ortho (yellow) toward NADH, NADPH and NMNH | 
NC(=O)c1ccc[n+]([C@@H]2O[C@H](COP(=O)(O)OP(=O)(O)OC[C@H]3O[C@@H](n4cnc5c(N)ncnc54)[C@H](OP(=O)(O)O)[C@@H]3O)[C@@H](O)[C@H]2O)c1 [NADP+] |  | We subsequently confirmed specific activity with NADP^+
